Data published in ChEMBL document CHEMBL4616634, “4β-Hydroxywithanolide E from Goldenberry (Whole Fruits of Physalis peruviana L.) as a Promising Agent against Chronic Obstructive Pulmonary Disease” (J Nat Prod, 2020).
Calls of active or inactive are those of the source. No cut-off for these calls is given here.

Assays:
[1] = molecular target: T1, Nuclear factor erythroid 2-related factor 2 (Homo sapiens) (UniProt Q16236); assay: Activation of Nrf2 in human MDA-MB-231 cells assessed as increase in ARE luciferase activity at > 4 uM incubated for 16 hrs by luciferase reporter gene assay; assay type: cell-based
T1 sequence (whole entry): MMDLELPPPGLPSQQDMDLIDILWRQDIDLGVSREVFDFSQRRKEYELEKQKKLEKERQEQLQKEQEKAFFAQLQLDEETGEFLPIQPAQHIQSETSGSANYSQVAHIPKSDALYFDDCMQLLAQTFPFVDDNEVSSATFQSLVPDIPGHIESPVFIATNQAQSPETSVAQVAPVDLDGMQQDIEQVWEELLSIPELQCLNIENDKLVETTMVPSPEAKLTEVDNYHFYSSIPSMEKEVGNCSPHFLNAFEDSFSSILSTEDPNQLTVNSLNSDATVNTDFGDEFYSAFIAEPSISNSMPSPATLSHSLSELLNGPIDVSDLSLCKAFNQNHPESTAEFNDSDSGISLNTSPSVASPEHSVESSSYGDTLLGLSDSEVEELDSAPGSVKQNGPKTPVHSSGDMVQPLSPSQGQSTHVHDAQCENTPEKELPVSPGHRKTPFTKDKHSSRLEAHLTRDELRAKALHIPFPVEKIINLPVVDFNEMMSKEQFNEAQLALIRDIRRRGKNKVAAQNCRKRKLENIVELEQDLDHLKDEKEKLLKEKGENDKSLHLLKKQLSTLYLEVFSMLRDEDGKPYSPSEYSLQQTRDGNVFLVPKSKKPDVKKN

[2] = molecular target: T1, Nuclear factor erythroid 2-related factor 2 (Homo sapiens); assay: Activation of Nrf2 in human BEAS2B cells assessed as increase in Nrf2 protein level incubated for 12 hrs by immunoblot analysis; assay type: cell-based
[3] = system: Mus musculus; assay: Antioxidant Activity in C57BL/6 mouse model of CS-induced pulmonary injury assessed as decrease in MDA level in serum at 2 to 4 mg/kg, ip for 5 days; assay type: functional, organism-based
[4] = system: RAW264.7; assay: Inhibition of LPS-induced TNFalpha protein expression in mouse RAW264.7 cells at 0.5 to 4 uM preincubated for 1 hr followed by LPS-stimulation and measured after 16 hrs by immunoblot analysis; assay type: functional, cell-based
[5] = system: Mus musculus; assay: Antiinflammatory activity in C57BL/6 mouse model of CS-induced pulmonary injury assessed as reduction in goblet cell hyperplasia in perivascular areas in lungs at 2 to 4 mg/kg, ip for 5 days by hematoxylin and eosin staining based fluorescence microscopic analysis; assay type: functional, organism-based
[6] = molecular target: T1, Nuclear factor erythroid 2-related factor 2 (Homo sapiens); assay: Activation of Nrf2 in human MDA-MB-231 cells assessed as increase in Nrf2 protein level at 0.5 uM incubated for 16 hrs by immunoblot analysis; assay type: cell-based
[7] = molecular target: T1, Nuclear factor erythroid 2-related factor 2 (Homo sapiens); assay: Activation of Nrf2 in human BEAS2B cells assessed as increase in Nrf2 protein expression at 5 uM incubated for 24 hrs by immunoblot analysis; assay type: cell-based
[8] = molecular target: T1, Nuclear factor erythroid 2-related factor 2 (Homo sapiens); assay: Activation of Nrf2 in human BEAS2B cells assessed as increase in Nrf2 protein expression at 1 uM incubated for 24 hrs by immunoblot analysis; assay type: cell-based
[9] = system: Mus musculus; assay: Antiinflammatory activity in C57BL/6 mouse model of CS-induced pulmonary injury assessed as increase in GCLM protein expression in lungs at 2 to 4 mg/kg, ip for 5 days by immunoblot analysis; assay type: functional, organism-based
[10] = system: Mus musculus; assay: Antiinflammatory activity in C57BL/6 mouse model of CS-induced pulmonary injury assessed as reduction in IL-1beta protein expression in lungs at 2 to 4 mg/kg, ip for 5 days by ELISA; assay type: functional, organism-based
[11] = system: Mus musculus; assay: Antioxidant Activity in C57BL/6 mouse model of CS-induced pulmonary injury assessed as decrease in MDA level in lungs at 2 to 4 mg/kg, ip for 5 days; assay type: functional, organism-based
[12] = molecular target: T1, Nuclear factor erythroid 2-related factor 2 (Homo sapiens); assay: Activation of Nrf2 in human MDA-MB-231 cells assessed as increase in ARE luciferase activity at 0.13 to 2 uM incubated for 16 hrs by luciferase reporter gene assay; assay type: cell-based
[13] = system: RAW264.7; assay: Inhibition of LPS-induced iNOS protein expression in mouse RAW264.7 cells at 0.5 to 4 uM preincubated for 1 hr followed by LPS-stimulation and measured after 16 hrs by immunoblot analysis; assay type: functional, cell-based
[14] = molecular target: T1, Nuclear factor erythroid 2-related factor 2 (Homo sapiens); assay: Activation of Nrf2 in human BEAS2B cells assessed as increase in luciferase activity at 0.25 to 2 uM incubated for 18 hrs by dual luciferase reporter gene assay; assay type: cell-based
[15] = system: RAW264.7; assay: Inhibition of LPS-induced MMP-9 mRNA expression in mouse RAW264.7 cells at 0.5 to 4 uM preincubated for 1 hr followed by LPS-stimulation and measured after 6 hrs by qRT-PCR analysis; assay type: functional, cell-based
[16] = system: Mus musculus; assay: Antiinflammatory activity in C57BL/6 mouse model of CS-induced pulmonary injury assessed as reduction in IL-6 protein expression in lungs at 2 to 4 mg/kg, ip for 5 days by ELISA; assay type: functional, organism-based
[17] = molecular target: T1, Nuclear factor erythroid 2-related factor 2 (Homo sapiens); assay: Activation of Nrf2 in human MDA-MB-231 cells assessed as increase in luciferase activity incubated for 16 hrs by dual luciferase reporter gene assay; assay type: cell-based
[18] = molecular target: T1, Nuclear factor erythroid 2-related factor 2 (Homo sapiens); assay: Activation of Nrf2 in human BEAS2B cells assessed as increase in Keap1 mRNA expression at 0.5 to 2 uM incubated for 24 hrs by qRT-PCR analysis; assay type: cell-based
[19] = system: BEAS-2B; assay: Antioxidant activity in human BEAS2B cells assessed as increase in GSH level at 2 uM incubated for 1 to 12 hrs; assay type: functional, cell-based
[20] = system: RAW264.7; assay: Inhibition of LPS-induced TNFalpha mRNA expression in mouse RAW264.7 cells at 0.5 to 4 uM preincubated for 1 hr followed by LPS-stimulation and measured after 6 hrs by qRT-PCR analysis; assay type: functional, cell-based
[21] = system: MDA-MB-231; assay: Cytotoxicity against human MDA-MB-231 cells assessed as decrease in cell viability at 0.13 to 10 uM after 24 to 48 hrs by MTT assay; assay type: cell-based; details: mda-mb-231, 10 µM
[22] = system: Mus musculus; assay: Antiinflammatory activity in C57BL/6 mouse model of CS-induced pulmonary injury assessed as increase in Nrf2 protein expression in lungs at 2 to 4 mg/kg, ip for 5 days by immunoblot analysis; assay type: functional, organism-based
[23] = system: Mus musculus; assay: Antiinflammatory activity in C57BL/6 mouse model of CS-induced pulmonary injury assessed as reduction in goblet cell hyperplasia in peribronchial in lungs at 2 to 4 mg/kg, ip for 5 days by hematoxylin and eosin staining based fluorescence microscopic analysis; assay type: functional, organism-based
[24] = system: Mus musculus; assay: Antiinflammatory activity in C57BL/6 mouse model of CS-induced pulmonary injury assessed as reduction in TNFapha protein expression in lungs at 2 to 4 mg/kg, ip for 5 days by ELISA; assay type: functional, organism-based
[25] = molecular target: T1, Nuclear factor erythroid 2-related factor 2 (Homo sapiens); assay: Stabilization of Nrf2 in human BEAS2B cells assessed as protein half life at 1 uM after 8 hrs in presence of CHX by immunoblot analysis (reference value: 12.9 min); assay type: cell-based
[26] = system: Mus musculus; assay: Antiinflammatory activity in C57BL/6 mouse model of CS-induced pulmonary injury assessed as reduction in 8-oxo-dG in lungs at 2 to 4 mg/kg, ip for 5 days by ELISA; assay type: functional, organism-based
[27] = molecular target: T1, Nuclear factor erythroid 2-related factor 2 (Homo sapiens); assay: Activation of Nrf2 in human MDA-MB-231 cells assessed as increase in GCLM protein level at 0.5 uM incubated for 16 hrs by immunoblot analysis; assay type: cell-based

Structure (SMILES): CC1=C(C)C(=O)O[C@H]([C@](C)(O)[C@]2(O)CC[C@@]3(O)[C@@H]4C[C@H]5O[C@]56[C@@H](O)C=CC(=O)[C@]6(C)[C@H]4CC[C@]23C)C1
- Activity [1]: inactive
- Activity [2]: Dose-dependent effect
- Activity [3]: Active
- inhibition [4]: Active
- Activity [5]: Active
- Activity [6]: Active
- Activity [7]: Active
- Activity [8]: inactive
- Activity [9]: Active
- Activity [10]: Active
- Activity [11]: Active
- Activity [12]: Active
- inhibition [13]: Active
- Activity [14]: Active
- inhibition [15]: Active
- Activity [16]: Active
- Activity [17]: Dose-dependent effect
- Activity [18]: inactive
- Activity [19]: Active
- inhibition [20]: Active
- Activity [21]: Toxic
- Activity [22]: Active
- Activity [23]: Active
- Activity [24]: Active
- T1/2 [25]: 34.3 min
- Activity [26]: Active
- Activity [27]: Active
